Reference: patent publication US20040005256A1, “Crystallization system utilizing atomization” (priority 2002, published 2004)

Assay: maximum concentration of D,L-Threonine dissolved in water
Type: physicochemical
Conditions: solid dissolved in water (solvent) before atomization into acetone anti-solvent
Experimental: For example, the material-containing solution may be composed of a solvent, such as water, and a material to be crystallized, such as D,L-Threonine, dissolved in the water. The anti-solvent could be acetone. The solid D,L-Threonine is dissolved at its maximum concentration ratio (160 g/L) in water. The D,L-Threonine solution is atomized and introduced into the acetone. The atomized solution and the acetone are then mixed to produce the crystallized product.

maximum concentration ratio in water: 160 g/L
SMILES: C[C@@H](O)[C@H](N)C(=O)O (racemic) [D,L-Threonine]
